Source: ChEMBL document CHEMBL1649270, “ST-246 inhibits in vivo poxvirus dissemination, virus shedding, and systemic disease manifestation” (2009)
Activity calls are given as the source filed them. The calls are words filed in the database; no cut-off is given here.

Columns and labels:
Vaccinia virus WR [1] = experiment: Antiviral activity against Vaccinia virus WR ATCC VR-1354 infected through intraperitoneal route in BALB/c mouse assessed as reduction of viral load in liver at 100 mg/kg, po qd measured after 3 days postinfection by RT-PCR analysis relative to control; format: functional, organism-based; set-up: dose 100 mg/kg
Vaccinia virus WR [2] = experiment: Antiviral activity against Vaccinia virus WR ATCC VR-1354 infected through dermal scarification route in BALB/c mouse assessed as protection against virus-induced satellite lesion formation on tails at 100 mg/kg, po qd measured after 6 days postinfection; format: functional, organism-based; set-up: dose 100 mg/kg
Vaccinia virus WR [3] = experiment: Antiviral activity against Vaccinia virus WR ATCC VR-1354 infected through intravenous route in BALB/c mouse assessed as protection against virus-induced satellite lesion formation on tails at 100 mg/kg, po qd measured after 6 days postinfection; format: functional, organism-based; set-up: dose 100 mg/kg
Vaccinia virus WR [4] = experiment: Antiviral activity against Vaccinia virus WR ATCC VR-1354 infected through percutaneous route in BALB/c mouse assessed as reduction of viral load in spleen at 100 mg/kg, po qd measured after 13 days postinfection by RT-PCR analysis relative to control; format: functional, organism-based; set-up: dose 100 mg/kg
Vaccinia virus WR [5] = experiment: Antiviral activity against Vaccinia virus WR ATCC VR-1354 infected through percutaneous route in BALB/c mouse assessed as inhibition of virus dissemination in spleen at 100 mg/kg, po qd for 1 day by RT-PCR analysis relative to control; format: functional
Vaccinia virus WR [6] = experiment: Antiviral activity against Vaccinia virus WR ATCC VR-1354 infected through dermal scarification route in ACAM2000 vaccinated BALB/c mouse assessed as reduction of swab virus titers at 100 mg/kg, po qd measured after 21 days postinfection by RT-PCR analysis relative to control; format: functional
Vaccinia virus WR [7] = experiment: Antiviral activity against Vaccinia virus WR ATCC VR-1354 infected through intraperitoneal route in BALB/c mouse assessed as reduction of viral load in brain at 100 mg/kg, po qd measured after 5 days postinfection by RT-PCR analysis relative to control; format: functional, organism-based; set-up: dose 100 mg/kg
Vaccinia virus WR [8] = experiment: Antiviral activity against Vaccinia virus WR ATCC VR-1354 infected through percutaneous route in BALB/c mouse assessed as inhibition of virus dissemination in brain at 100 mg/kg, po qd for 3 to 14 days by RT-PCR analysis; format: functional, organism-based; set-up: dose 100 mg/kg
Vaccinia virus WR [9] = experiment: Antiviral activity against Vaccinia virus WR ATCC VR-1354 infected through dermal scarification route in ACAM2000 vaccinated BALB/c mouse assessed as reduction of swab virus titers at 100 mg/kg, po qd measured after 14 days postinfection by RT-PCR analysis relative to control; format: functional
Vaccinia virus WR [10] = experiment: Antiviral activity against Vaccinia virus WR ATCC VR-1354 infected through percutaneous route in BALB/c mouse assessed as protection against virus-induced conjunctivitis in mouse eyes at 100 mg/kg, po qd measured after 6 days postinfection; format: functional, organism-based; set-up: dose 100 mg/kg
Vaccinia virus WR [11] = experiment: Antiviral activity against Vaccinia virus WR ATCC VR-1354 infected through percutaneous route in BALB/c mouse assessed as reduction of viral load in brain at 100 mg/kg, po qd measured after 5 days postinfection by RT-PCR analysis relative to control; format: functional
Vaccinia virus WR [12] = experiment: Antiviral activity against Vaccinia virus WR ATCC VR-1354 infected through percutaneous route in BALB/c mouse assessed as protection against virus-induced satellite lesion formation on tails at 100 mg/kg, po qd measured after 6 days postinfection; format: functional, organism-based; set-up: dose 100 mg/kg
Vaccinia virus WR [13] = experiment: Antiviral activity against Vaccinia virus WR ATCC VR-1354 infected through intraperitoneal route in BALB/c mouse assessed as reduction of viral load in blood at 100 mg/kg, po qd measured after 3 days postinfection by RT-PCR analysis relative to control; format: functional, organism-based; set-up: dose 100 mg/kg
Vaccinia virus WR [14] = experiment: Antiviral activity against Vaccinia virus WR ATCC VR-1354 infected through intraperitoneal route in BALB/c mouse assessed as reduction of viral load in spleen at 100 mg/kg, po qd measured after 5 days postinfection by RT-PCR analysis relative to control; format: functional, organism-based; set-up: dose 100 mg/kg
Vaccinia virus WR [15] = experiment: Antiviral activity against Vaccinia virus WR ATCC VR-1354 infected through percutaneous route in BALB/c mouse assessed as protection against hypothermia at 100 mg/kg, po qd for 1 to 3 days measured on day 6; format: functional, organism-based; set-up: dose 100 mg/kg
Vaccinia virus WR [16] = experiment: Antiviral activity against Vaccinia virus WR ATCC VR-1354 infected through percutaneous route in BALB/c mouse assessed as protection against hypothermia at 100 mg/kg, po qd for 5 to 14 days; format: functional, organism-based; set-up: dose 100 mg/kg
Vaccinia virus WR [17] = experiment: Antiviral activity against Vaccinia virus WR ATCC VR-1354 infected through percutaneous route in BALB/c mouse assessed as reduction of viral load in lungs at 100 mg/kg, po qd measured after 3 days postinfection by RT-PCR analysis relative to control; format: functional
Vaccinia virus WR [18] = experiment: Antiviral activity against Vaccinia virus WR ATCC VR-1354 infected through dermal scarification route in ACAM2000 vaccinated BALB/c mouse assessed as reduction of swab virus titers at 100 mg/kg, po qd measured after 5 days postinfection by RT-PCR analysis relative to control; format: functional
Vaccinia virus WR [19] = experiment: Antiviral activity against Vaccinia virus WR ATCC VR-1354 infected through percutaneous route in BALB/c mouse assessed as protection against hypothermia at 100 mg/kg, po qd for 1 to 3 days measured on day 2; format: functional, organism-based; set-up: dose 100 mg/kg
Vaccinia virus WR [20] = experiment: Antiviral activity against Vaccinia virus WR ATCC VR-1354 infected through dermal scarification route in BALB/c mouse assessed as reduction of viral load in lung at 100 mg/kg, po qd measured after 5 days postinfection by RT-PCR analysis relative to control; format: functional
Vaccinia virus WR [21] = experiment: Antiviral activity against Vaccinia virus WR ATCC VR-1354 infected through dermal scarification route in ACAM2000 vaccinated BALB/c mouse assessed as reduction of swab virus titers at 100 mg/kg, po qd measured after 7 days postinfection by RT-PCR analysis relative to control; format: functional
Vaccinia virus WR [22] = experiment: Antiviral activity against Vaccinia virus WR ATCC VR-1354 infected through intraperitoneal route in BALB/c mouse assessed as reduction of viral load in spleen at 100 mg/kg, po qd measured after 3 days postinfection by RT-PCR analysis relative to control; format: functional, organism-based; set-up: dose 100 mg/kg
Vaccinia virus WR [23] = experiment: Antiviral activity against Vaccinia virus WR ATCC VR-1354 infected through percutaneous route in BALB/c mouse assessed as protection against weight loss at 100 mg/kg, po qd for 1 to 3 days measured on day 8; format: functional, organism-based; set-up: dose 100 mg/kg
Vaccinia virus WR [24] = experiment: Antiviral activity against Vaccinia virus WR ATCC VR-1354 infected through subcutaneous route in BALB/c mouse assessed as protection against virus-induced conjunctivitis in mouse eyes at 100 mg/kg, po qd measured after 6 days postinfection; format: functional, organism-based; set-up: dose 100 mg/kg
Vaccinia virus WR [25] = experiment: Antiviral activity against Vaccinia virus WR ATCC VR-1354 infected through intravenous route in BALB/c mouse assessed as reduction of viral load in brain at 100 mg/kg, po qd measured after 14 days postinfection by RT-PCR analysis relative to control; format: functional, organism-based; set-up: dose 100 mg/kg
Vaccinia virus WR [26] = experiment: Antiviral activity against Vaccinia virus WR ATCC VR-1354 infected through dermal scarification route in BALB/c mouse assessed as protection against virus-induced conjunctivitis in mouse eyes at 100 mg/kg, po qd measured after 6 days postinfection; format: functional, organism-based; set-up: dose 100 mg/kg

SMILES: O=C(NN1C(=O)[C@@H]2[C@@H]3C=C[C@@H]([C@H]4C[C@@H]34)[C@@H]2C1=O)c1ccc(C(F)(F)F)cc1 [TECOVIRIMAT]
- Activity (Vaccinia virus WR [1]): inactive
- Activity (Vaccinia virus WR [2]): Active
- Activity (Vaccinia virus WR [3]): Active
- Activity (Vaccinia virus WR [4]): Active
- fold change (FC) (Vaccinia virus WR [5]): 17
- fold change (FC) (Vaccinia virus WR [6]): 3900
- Activity (Vaccinia virus WR [7]): Active
- Activity (Vaccinia virus WR [8]): Active
- fold change (FC) (Vaccinia virus WR [9]): 25
- Activity (Vaccinia virus WR [10]): Active
- fold change (FC) (Vaccinia virus WR [11]): 13
- Activity (Vaccinia virus WR [12]): Active
- Activity (Vaccinia virus WR [13]): inactive
- Activity (Vaccinia virus WR [14]): Active
- Activity (Vaccinia virus WR [15]): Active
- Activity (Vaccinia virus WR [16]): Active
- fold change (FC) (Vaccinia virus WR [17]): 4
- fold change (FC) (Vaccinia virus WR [18]): 71
- Activity (Vaccinia virus WR [19]): inactive
- fold change (FC) (Vaccinia virus WR [20]): 18
- fold change (FC) (Vaccinia virus WR [21]): 53
- Activity (Vaccinia virus WR [22]): inactive
- Activity (Vaccinia virus WR [23]): inactive
- Activity (Vaccinia virus WR [24]): Active
- Activity (Vaccinia virus WR [25]): Active
- Activity (Vaccinia virus WR [26]): Active
